# Experimental data as given in PubChem BioAssay (NCI).
#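 Values below derive from 48-hour exposures of cells grown in 96-well plates, with endpoints linearly interpolated between the two concentrations bracketing the appropriate inhibition level. GI50 marks 50% less growth. The concentration for full growth arrest is given as TGI.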
# What was measured:
# Experiment in all cases: DTP human tumour cell line panel, 48 h
# [1] = system: SNB-75 CNS
# [2] = system: SK-MEL-28 melanoma
# [3] = system: NCI/ADR-RES ovarian
# [4] = system: MDA-N
# [5] = system: PC-3 prostate
# [6] = system: A498 renal
# [7] = system: RXF 393 renal
# [8] = system: ACHN renal
# [9] = system: NCI-H522 lung
# [10] = system: HS 578T breast
# [11] = system: SK-MEL-5 melanoma
Compound,TGI [1] [µM],TGI [2] [µM],TGI [3] [µM],TGI [4] [µM],TGI [5] [µM],TGI [6] [µM],TGI [7] [µM],TGI [8] [µM],TGI [9] [µM],TGI [10] [µM],TGI [11] [µM],GI50 [1] [µM],GI50 [8] [µM],GI50 [9] [µM],GI50 [2] [µM],GI50 [3] [µM],GI50 [10] [µM],GI50 [11] [µM],GI50 [6] [µM],GI50 [7] [µM]
CNc1ccc(C(=O)CC(O)CCC(C)C2OC(=O)CC(O)CC(=O)CC(O)CC(O)CC(O)CC(O)CC3(O)CC(O)C(C(=O)NCCN(C)C)C(CC(OC4OC(C)C(O)C(NC(=O)CN5CCN(C)CC5)C4O)/C=C/C=C/C=C/C=C\C=C/C=C/C=C/C2C)O3)cc1 (centres undefined),> 100,45.7,> 100,> 100,> 100,7.8,> 100,–,–,–,–,–,–,–,–,–,–,–,–,–
CC(C)(C)NC(NC(C)(C)C)=C(/C=C(/Cl)[N+](=O)[O-])[N+](=O)[O-],87.2,> 100,–,59.5,> 100,> 100,> 100,> 100,> 100,> 100,> 100,–,–,–,–,–,–,–,–,–
CC(C)CC1C(=O)NCCC(NC(=O)C(Cc2ccc(OC(C)(C)C)cc2)NC(=O)OC(C)(C)C)C(=O)NC(Cc2ccccc2)C(=O)NC(Cc2ccccc2)NC1=O (centres undefined),–,42.4,> 100,> 100,46.1,–,27.2,23.3,35.4,> 100,85.9,–,–,–,–,–,–,–,–,–
CN(C(=O)C1=CCC2(CC1)OCCO2)c1ccccc1OS(=O)(=O)C(F)(F)F,79.5,> 100,> 100,> 100,> 100,> 100,> 100,> 100,–,–,> 100,–,–,–,–,–,–,–,–,–
COc1cccc2c1OC(c1ccc(Cl)cc1)C([N+](=O)[O-])=C2 (centres undefined),–,7.19,39.5,3.45,5.3,–,3.32,3.28,3.23,13.4,2.95,–,–,–,–,–,–,–,–,–
CN=c1nc2sc3c(c2c(NC(=S)NC)s1)CCCC3,–,> 100,–,> 100,> 100,> 100,82.9,> 100,> 100,97.4,> 100,–,–,–,–,–,–,–,–,–
COc1ccc(N2C(=O)/C(=C(\C)c3cc4ccccc4oc3=O)N=C2c2cc([N+](=O)[O-])ccc2Cl)cc1,> 100,> 100,–,–,–,82.6,–,> 100,39.1,–,> 100,–,–,–,–,–,–,–,–,–
CC(C)C(=O)[C@@]1(C)SC[C@H]2CCN=C21,–,> 100,> 100,> 100,–,> 100,> 100,> 100,> 100,> 100,> 100,–,–,–,–,–,–,–,–,–
CC(C)(C)[Si](OC1CC(n2cnc3c(N)ncnc32)OC1CO)(c1ccccc1)c1ccccc1 (centres undefined),–,41.1,–,–,–,32.9,29.5,31.8,30,–,–,–,–,–,–,–,–,–,–,–
CCCCN(CCCC)CC(O)c1cc(-c2ccc(C(F)(F)F)cc2)nc(-c2ccc(C(F)(F)F)cc2)c1 (centres undefined),> 100,> 100,> 100,–,> 100,> 100,–,> 100,> 100,–,–,–,–,–,–,–,–,–,–,–
O=C(O)c1ccc(Nc2c3ccccc3nc3ccccc23)cc1,> 100,> 100,> 100,–,–,> 100,> 100,–,> 100,–,> 100,–,–,–,–,–,–,–,–,–
CCOc1cc2c(OCc3ccccc3)cc3c4cc(OC)c(OC)cc4c[n+](C)c3c2cc1OC,> 100,–,> 100,–,4.84,> 76.3,9.18,> 75.2,1.43,–,–,–,–,–,–,–,–,–,–,–
CCCC(=O)n1[nH]c(=O)n(-c2ccc(Cl)cc2)c1=O,> 100,> 100,> 100,> 100,> 100,–,> 100,> 100,–,> 100,> 100,–,–,–,–,–,–,–,–,–
COc1ccc(C2COc3cc(OC(C)=O)c(OC(C)=O)cc3C2)cc1 (centres undefined),25.8,46.9,101,–,–,8.32,34.1,–,6.3,–,48.2,–,–,–,–,–,–,–,–,–
COc1cc(/C=C2\C[C@H]3[C@@H]4CCc5cc(O)ccc5[C@H]4CC[C@]3(C)C2=O)cc(OC)c1OC,26.4,24.8,39.5,62.3,25.5,87.5,24.1,38.7,3.95,–,38.4,–,–,–,–,–,–,–,–,–
Cc1cc(C)nc(NC(=O)c2ccc(Br)s2)c1,> 100,> 100,> 100,> 100,> 100,> 100,> 100,> 100,> 100,–,17.6,–,–,–,–,–,–,–,–,–

Compound,TGI [1] [µM],TGI [2] [µM],TGI [3] [µM],TGI [4] [µM],TGI [5] [µM],TGI [6] [µM],TGI [7] [µM],TGI [8] [µM],TGI [9] [µM],TGI [10] [µM],TGI [11] [µM],GI50 [1] [µM],GI50 [8] [µM],GI50 [9] [µM],GI50 [2] [µM],GI50 [3] [µM],GI50 [10] [µM],GI50 [11] [µM],GI50 [6] [µM],GI50 [7] [µM]
c1nc(OCC2CCCCC2)c2[nH]cnc2n1,> 100,> 100,> 100,> 100,> 100,–,> 100,> 100,> 100,> 100,> 100,–,–,–,–,–,–,–,–,–
CCOC(=O)C1=C(C)N(Cc2ccc(Cl)cc2Cl)C2(O)C=CC(=O)C3C(=O)N(c4ccccc4)C(=O)C132 (centres undefined),–,3.53,11.1,–,3.55,16.9,2.87,3.08,3.64,36.3,8.57,–,–,–,–,–,–,–,–,–
CN(C)CCCNC(=O)c1cc2[nH]c3c(cnc4ccc([N+](=O)[O-])cc43)c(=O)c2n1C,28.9,33.9,49.6,–,–,> 100,18.7,27.9,32.1,41.3,31.1,15.5,14.5,17.4,19.7,22,18.1,17.1,55.1,4.88
COC(=O)CCC1=CCC2(SC)C(=O)Nc3cccc1c32 (centres undefined),> 100,> 100,> 100,–,> 100,–,–,> 100,> 100,> 100,> 100,–,–,–,–,–,–,–,–,–
O=c1cnn(C2OC(C(O)CO)C(O)C2O)c(=O)[nH]1 (centres undefined),> 100,> 100,> 100,> 100,> 100,–,> 100,> 100,> 100,> 100,> 100,–,–,–,–,–,–,–,–,–
C=C(CCC/C(C)=C/C=C/[C@]1(C)CCCc2ccoc21)CC(=O)O,> 100,> 100,> 100,–,> 100,> 100,> 100,> 100,> 100,> 100,> 100,–,–,–,–,–,–,–,–,–
CC(=O)Nc1ccc(N2C(=O)/C(=C\c3cccc(Oc4ccccc4)c3)S(=O)(=O)C2c2ccccc2)cc1 (centres undefined),> 100,> 100,> 100,95.3,> 100,> 100,> 100,> 100,> 100,–,> 100,–,–,–,–,–,–,–,–,–
O=C1C(Cl)N(c2ccc(Cl)cc2)C1c1c[nH]c2ccccc12 (centres undefined),> 100,96.5,–,–,–,–,42.1,–,39,–,31,–,–,–,–,–,–,–,–,–
COc1ccc(N2C(=O)CC(C3CC(C(C)(C)C)CCC3=O)C2=O)cc1 (centres undefined),> 100,> 100,> 100,> 100,> 100,–,> 100,> 100,32.9,> 100,> 100,–,–,–,–,–,–,–,–,–
COc1cc(C(=O)n2c3ccc(Br)cc3c3nc4ccccc4nc32)cc(OC)c1OC,> 100,> 100,> 100,> 100,> 100,–,66.4,> 100,> 100,–,> 100,–,–,–,–,–,–,–,–,–
Cc1cc2c(cc1Cl)SC(NS(=O)(=O)c1ccc(Cl)cc1)=NS2(=O)=O,> 100,> 100,> 100,–,–,> 100,66.5,> 100,84.2,> 100,> 100,–,–,–,–,–,–,–,–,–
CC(C)(C)[Si](C)(C)OCC1OC(n2ccc(N)nc2=O)C(O[Si](C)(C)C(C)(C)C)C1O[Si](C)(C)C(C)(C)C (centres undefined),14.2,–,> 100,13,3.65,–,–,3.21,3.36,7.89,3.43,–,–,–,–,–,–,–,–,–
CCCCS(=O)CCC(N)P(=O)(O)O (centres undefined),> 100,> 100,> 100,> 100,> 100,–,–,> 100,> 100,> 100,> 100,–,–,–,–,–,–,–,–,–
COC(=O)c1cc2c3c(ccc2[nH]1)N(C(=O)c1cc2cc(OC)c(OC)c(OC)c2[nH]1)CC3CCl (centres undefined),> 100,> 100,> 91.8,–,> 100,> 100,> 100,> 100,> 100,> 100,> 100,–,–,–,–,–,–,–,–,–
Oc1cn(-c2ccc(Cl)cc2)nc1-c1nnc(-c2ccccc2)o1,> 100,53.1,7,–,> 66.6,56.3,9.55,24.5,22.9,40.8,5.13,–,–,–,–,–,–,–,–,–
FC(F)(F)c1ccc(N=C/C=C(/Nc2ccc(C(F)(F)F)cc2)c2ccc(Cl)cc2)cc1,36.8,33.4,32.3,–,75.8,–,26.4,26.2,31.3,38.2,22.2,–,–,–,–,–,–,–,–,–
